These results are taken from patent US3992379A, “4-Alkyldioxyalkylene-5-benzylpyrimidines” (Ludwig Heumann & Co. GmbH, priority 1973, dated 1976).

Structures are written as SMILES. Values after ≈ are worked out from the molar mass of the structure shown.

A word on the solubility: it is the concentration that dissolves in the medium under given conditions. Low readings indicate little dissolved substance, high ones much dissolved substance. As a reminder, the zone of inhibition is the extent of the growth-free halo in a diffusion test. A high value points to a stronger effect on the plate. The LD50 is the dose expected to kill half of the subjects tested. A lower LD50 goes with greater toxicity.

For data set [1] the following is noted: J. Med. Pharm. Chem. 5, p. 1118, Tab. 9; cited from earlier work.
A short description of a further data set: physchem. The following applies: water.
The subject of a further data set is 25 coli strains. The data set can be described thus: Anti-bacterial action test with discs impregnated with 25 μg of substance (arresting circle diameter). Type of data set: cell-based. The following applies: mean (x) over 25 coli strains. The procedure: The test for anti-bacterial action […] was performed with discs which were each impregnated with 25 μg of the two substances A and B: […]

A further data set can be described thus: in vivo. Particulars: rat, rats.
The nature of data set [2]: Anti-bacterial action, general statement. The following applies: in words; compared with conventional bactericide 5-nitro-8-hydroxycholine. The source says:
These physical properties are required in order to meet the fundamental needs for resorption required in oral adminstration.

Data set [3] is described as follows: Toxicity, general statement. The following applies: in words; compared with conventional bactericide 5-nitro-8-hydroxycholine.

On to `COc1cc(Cc2cnc(N)nc2N)cc(OC)c1OC` [2,4-diamino-5-(3',4',5'-trimethoxy-benzyl)-pyrimidine], for which the bactericidal activity result in data set [1] is “such activity is present in the maximum degree”. Also, the solubility in “physchem” worked out at 670 µg/mL (≈ 2.31 mM).

Turning to `COc1ccc(Cc2cnc(N)nc2N)cc1OC` [2,4-diamino-5-(3'-4'-dimethoxybenzyl)-pyrimidine], in data set [1], the bactericidal activity entry is reported as “has bactericidal activity”.

`O=[N+]([O-])c1ccc(O)c2ncccc12` [substance A, 5-nitro-8-hydrocholine] returned a zone of inhibition at 25 µg/disc in the data set with 25 coli strains of 20.7 mm. The compound further registered an LD50 in the data set “in vivo” of 830 mg/kg.

Compound `COCCOc1c(OC)cc(Cc2cnc(N)nc2N)cc1OC` [substance B, 2,4-diamino-5-(3',5'-dimethoxy-4'-methyldioxyethylene-benzyl)-pyrimidine] registered a zone of inhibition at 25 µg/disc with 25 coli strains of 28.5 mm. The anti-bacterial action entry in data set [2] is “improved anti-bacterial action”. In addition, in data set [3], the degree of toxicity result is “substantially lower degree of toxicity”. The solubility in “physchem” was found to be 8000 µg/mL (≈ 23.9 mM).
